Reference: article PMC11930985 (Nature Communications, 2025)
“Also recorded” adds a separate entry of the source. Where two headings read alike, the source gives them in different places.

Test system: AML/MDS patients
Conditions: for Fatal SAE: Adverse event / Fatal SAE: Grade / Fatal SAE: Relationship to Bemcentinib: per patient
Method: Safety assessments including standard clinical laboratory safety tests (hematology, biochemistry, coagulation, and urinalysis), physical examinations, vital signs (blood pressure, heart rate, respiration rate and temperature), and ECOG performance status were performed at baseline and throughout the study. Electrocardiograms were obtained at screening, Cycle 1 Day 1–4, 8, and 15, Cycle 2 Day 1, 8 and 15, at Day 1 of each cycle thereafter, (up to and including Cycle 15), and at Final Study Visit. QT prolongation was assessed using the Fridericia correction […] [34]. Severity of QTcF prolongation was defined as follows: Grade 1: maximum prolongation 450–480 ms; Grade 2: maximum prolongation 481-500 ms; Grade 3: ≥501 ms on at least two separate ECGs; Grade 4: ≥501 ms or >60 ms change from baseline, with Torsades de pointes, polymorphic ventricular tachycardia or signs/symptoms of serious arrythmia; Grade 5: Death.
Adverse events (AEs) were monitored starting at study enrolment until 28 days after end of treatment and graded according to the National Cancer Institute Common Terminology Criteria for Adverse Events (NCI-CTCAE) version 4.0. If drug-related toxicities continued beyond the follow-up period, patients were followed until all drug-related toxicities resolved to grade ≤1, stabilized or returned to baseline.

[1] = DE and LDAC cohorts combined (n = 72)

Nc1nc(Nc2ccc3c(c2)CC[C@@H](N2CCCC2)CC3)nn1-c1cc2c(nn1)-c1ccccc1CCC2 [Bemcentinib]
Fatal SAEs: cerebral hemorrhage [1]: 2 n
Fatal SAEs: pneumonia/fungal pneumonia [1]: 3 n
Fatal SAEs: sepsis/neutropenic sepsis [1]: 4 n
Fatal SAEs (DE cohort): 7
Actinomyces test positive, number of events (E) (human, in vivo): 1
Actinomyces test positive, patients affected (human, in vivo): 1 (2.8) n (%)
Anaemia, number of events (E) (human, in vivo): 4
Anaemia, patients affected (human, in vivo): 4 (11.1) n (%)
Anxiety, number of events (E) (human, in vivo): 2
Anxiety, patients affected (human, in vivo): 2 (5.6) n (%)
Back pain, number of events (E) (human, in vivo): 1
Back pain, patients affected (human, in vivo): 1 (2.8) n (%)
Blood and lymphatic system disorders (System Organ Class), number of events (E) (human, in vivo): 26
Blood and lymphatic system disorders (System Organ Class), patients affected (human, in vivo): 12 (33.3) n (%)
Cardiac disorders (System Organ Class), number of events (E) (human, in vivo): 10
Cardiac disorders (System Organ Class), patients affected (human, in vivo): 4 (11.1) n (%)
Decreased appetite, number of events (E) (human, in vivo): 2
Decreased appetite, patients affected (human, in vivo): 2 (5.6) n (%)
Dehydration, number of events (E) (human, in vivo): 1
Dehydration, patients affected (human, in vivo): 1 (2.8) n (%)
Device related infection, number of events (E) (human, in vivo): 1
Device related infection, patients affected (human, in vivo): 1 (2.8) n (%)
Diarrhoea, number of events (E) (human, in vivo): 6
Diarrhoea, patients affected (human, in vivo): 3 (8.3) n (%)
Dysgeusia, number of events (E) (human, in vivo): 1
Dysgeusia, patients affected (human, in vivo): 1 (2.8) n (%)
Dysphagia, number of events (E) (human, in vivo): 1
Dysphagia, patients affected (human, in vivo): 1 (2.8) n (%)
Dyspnoea exertional, number of events (E) (human, in vivo): 1
Dyspnoea exertional, patients affected (human, in vivo): 1 (2.8) n (%)
Dyspnoea, number of events (E) (human, in vivo): 1
Dyspnoea, patients affected (human, in vivo): 1 (2.8) n (%)
Enterococcal bacteraemia, number of events (E) (human, in vivo): 1
Enterococcal bacteraemia, patients affected (human, in vivo): 1 (2.8) n (%)
Enthesopathy, number of events (E) (human, in vivo): 1
Enthesopathy, patients affected (human, in vivo): 1 (2.8) n (%)
Epistaxis, number of events (E) (human, in vivo): 2
Epistaxis, patients affected (human, in vivo): 1 (2.8) n (%)
Fall, number of events (E) (human, in vivo): 1
Fall, patients affected (human, in vivo): 1 (2.8) n (%)
Fatigue, number of events (E) (human, in vivo): 4
Fatigue, patients affected (human, in vivo): 2 (5.6) n (%)
Gastrointestinal disorders (System Organ Class), number of events (E) (human, in vivo): 18
Gastrointestinal disorders (System Organ Class), patients affected (human, in vivo): 12 (33.3) n (%)
General disorders and administration site conditions (System Organ Class), number of events (E) (human, in vivo): 8
General disorders and administration site conditions (System Organ Class), patients affected (human, in vivo): 6 (16.7) n (%)
General physical health deterioration, number of events (E) (human, in vivo): 3
General physical health deterioration, patients affected (human, in vivo): 3 (8.3) n (%)
Gingivitis, number of events (E) (human, in vivo): 1
Gingivitis, patients affected (human, in vivo): 1 (2.8) n (%)
Haematuria, number of events (E) (human, in vivo): 1
Haematuria, patients affected (human, in vivo): 1 (2.8) n (%)
Hyperglycaemia, number of events (E) (human, in vivo): 4
Hyperglycaemia, patients affected (human, in vivo): 2 (5.6) n (%)
Hyperuricaemia, number of events (E) (human, in vivo): 2
Hyperuricaemia, patients affected (human, in vivo): 2 (5.6) n (%)
Hypoglycaemia, number of events (E) (human, in vivo): 1
Hypoglycaemia, patients affected (human, in vivo): 1 (2.8) n (%)
Hypokalaemia, number of events (E) (human, in vivo): 5
Hypokalaemia, patients affected (human, in vivo): 5 (13.9) n (%)
Hyponatraemia, number of events (E) (human, in vivo): 2
Hyponatraemia, patients affected (human, in vivo): 2 (5.6) n (%)
Hypophosphataemia, number of events (E) (human, in vivo): 3
Hypophosphataemia, patients affected (human, in vivo): 3 (8.3) n (%)
Hypotension, number of events (E) (human, in vivo): 3
Hypotension, patients affected (human, in vivo): 3 (8.3) n (%)
Hypoxia, number of events (E) (human, in vivo): 2
Hypoxia, patients affected (human, in vivo): 2 (5.6) n (%)
Infection, number of events (E) (human, in vivo): 2
Infection, patients affected (human, in vivo): 2 (5.6) n (%)
Infections and infestations (System Organ Class), number of events (E) (human, in vivo): 29
Infections and infestations (System Organ Class), patients affected (human, in vivo): 23 (63.9) n (%)
Injury, poisoning and procedural complications (System Organ Class), number of events (E) (human, in vivo): 1
Injury, poisoning and procedural complications (System Organ Class), patients affected (human, in vivo): 1 (2.8) n (%)
Investigations (System Organ Class), number of events (E) (human, in vivo): 8
Investigations (System Organ Class), patients affected (human, in vivo): 7 (19.4) n (%)
Lactic acidosis, number of events (E) (human, in vivo): 1
Lactic acidosis, patients affected (human, in vivo): 1 (2.8) n (%)
Leukocytosis, number of events (E) (human, in vivo): 1
Leukocytosis, patients affected (human, in vivo): 1 (2.8) n (%)
Melaena, number of events (E) (human, in vivo): 1
Melaena, patients affected (human, in vivo): 1 (2.8) n (%)
Mental status changes, number of events (E) (human, in vivo): 1
Mental status changes, patients affected (human, in vivo): 1 (2.8) n (%)
Metabolism and nutrition disorders (System Organ Class), number of events (E) (human, in vivo): 21
Metabolism and nutrition disorders (System Organ Class), patients affected (human, in vivo): 14 (38.9) n (%)
Musculoskeletal and connective tissue disorders (System Organ Class), number of events (E) (human, in vivo): 4
Musculoskeletal and connective tissue disorders (System Organ Class), patients affected (human, in vivo): 2 (5.6) n (%)
Nausea, number of events (E) (human, in vivo): 3
Nausea, patients affected (human, in vivo): 3 (8.3) n (%)
Nervous system disorders (System Organ Class), number of events (E) (human, in vivo): 3
Nervous system disorders (System Organ Class), patients affected (human, in vivo): 3 (8.3) n (%)
Neutropenia, number of events (E) (human, in vivo): 3
Neutropenia, patients affected (human, in vivo): 2 (5.6) n (%)
Number of TEAE, number of events (E) (human, in vivo): 148
Number of TEAE, patients affected (human, in vivo): 35 (97.2) n (%)
Oesophagitis, number of events (E) (human, in vivo): 1
Oesophagitis, patients affected (human, in vivo): 1 (2.8) n (%)
Osteitis, number of events (E) (human, in vivo): 1
Osteitis, patients affected (human, in vivo): 1 (2.8) n (%)
Patients with dose interruptions due to adverse events (human, in vivo): 17
Patients with dose reductions (human, in vivo): 3
Pharyngitis, number of events (E) (human, in vivo): 1
Pharyngitis, patients affected (human, in vivo): 1 (2.8) n (%)
Pneumonia, number of events (E) (human, in vivo): 8
Pneumonia, patients affected (human, in vivo): 8 (22.2) n (%)
Psychiatric disorders (System Organ Class), number of events (E) (human, in vivo): 3
Psychiatric disorders (System Organ Class), patients affected (human, in vivo): 3 (8.3) n (%)
Pulmonary congestion, number of events (E) (human, in vivo): 1
Pulmonary congestion, patients affected (human, in vivo): 1 (2.8) n (%)
Rash erythematous, number of events (E) (human, in vivo): 1
Rash erythematous, patients affected (human, in vivo): 1 (2.8) n (%)
Renal and urinary disorders (System Organ Class), number of events (E) (human, in vivo): 4
Renal and urinary disorders (System Organ Class), patients affected (human, in vivo): 2 (5.6) n (%)
Respiratory failure, number of events (E) (human, in vivo): 1
Respiratory failure, patients affected (human, in vivo): 1 (2.8) n (%)
Respiratory, thoracic and mediastinal disorders (System Organ Class), number of events (E) (human, in vivo): 9
Respiratory, thoracic and mediastinal disorders (System Organ Class), patients affected (human, in vivo): 6 (16.7) n (%)
Sepsis, number of events (E) (human, in vivo): 3
Sepsis, patients affected (human, in vivo): 3 (8.3) n (%)
Skin and subcutaneous tissue disorders (System Organ Class), number of events (E) (human, in vivo): 1
Skin and subcutaneous tissue disorders (System Organ Class), patients affected (human, in vivo): 1 (2.8) n (%)
Stomatitis, number of events (E) (human, in vivo): 1
Stomatitis, patients affected (human, in vivo): 1 (2.8) n (%)
Streptococcal bacteraemia, number of events (E) (human, in vivo): 1
Streptococcal bacteraemia, patients affected (human, in vivo): 1 (2.8) n (%)
Supraventricular tachycardia, number of events (E) (human, in vivo): 1
Supraventricular tachycardia, patients affected (human, in vivo): 1 (2.8) n (%)
Syncope, number of events (E) (human, in vivo): 1
Syncope, patients affected (human, in vivo): 1 (2.8) n (%)
TEAE leading to Discontinuation (human, in vivo): 4 n (%)
Thrombocytopenia, number of events (E) (human, in vivo): 7
Thrombocytopenia, patients affected (human, in vivo): 5 (13.9) n (%)
Toothache, number of events (E) (human, in vivo): 1
Toothache, patients affected (human, in vivo): 1 (2.8) n (%)
Urethral haemorrhage, number of events (E) (human, in vivo): 1
Urethral haemorrhage, patients affected (human, in vivo): 1 (2.8) n (%)
Urinary incontinence, number of events (E) (human, in vivo): 1
Urinary incontinence, patients affected (human, in vivo): 1 (2.8) n (%)
Vascular disorders (System Organ Class), number of events (E) (human, in vivo): 3
Vascular disorders (System Organ Class), patients affected (human, in vivo): 3 (8.3) n (%)
Viral infection, number of events (E) (human, in vivo): 1
Viral infection, patients affected (human, in vivo): 1 (2.8) n (%)
Vomiting, number of events (E) (human, in vivo): 2
Vomiting, patients affected (human, in vivo): 2 (5.6) n (%)
Oral pain, number of events (E) (human, in vivo, po): 1
Oral pain, patients affected (human, in vivo, po): 1 (2.8) n (%)
Eye toxicity of grade ≥3 (in vivo): Only a single event
Retinal toxicities (in vivo): no evidence for retinal toxicities
Tolerability (in vivo): well-tolerated
Fatal SAE: Adverse event (Dose escalation 400 mg/100 mg): Neutropenic sepsis
Fatal SAE: Grade (Dose escalation 400 mg/100 mg): 5
Fatal SAE: Relationship to Bemcentinib (Dose escalation 400 mg/100 mg): Unrelated
Fatal SAE: Adverse event (Dose escalation 400 mg/200 mg): Multi-organ failure; also recorded: Pneumonia fungal; also recorded: Cerebral haemorrhage
Fatal SAE: Grade (Dose escalation 400 mg/200 mg): 5
Fatal SAE: Relationship to Bemcentinib (Dose escalation 400 mg/200 mg): Unrelated; also recorded: Unlikely related
Fatal SAE: Adverse event (Dose escalation 600 mg/200 mg): Pneumonia; also recorded: Sepsis
Fatal SAE: Grade (Dose escalation 600 mg/200 mg): 5
Fatal SAE: Relationship to Bemcentinib (Dose escalation 600 mg/200 mg): Unrelated
